Assay results from ChEMBL document CHEMBL6083233, “Modified (2'-deoxy)adenosines activate autophagy primarily through AMPK/ULK1-dependent pathway” (2024).
Activity calls are given as the source filed them. No cut-off for these calls is given here.

Key:
[1] = Activation of autophagy in human SH-SY5Y cells expressing GFP-LC3-RFP assessed as green-to-red signal ratio at 250 mkM relative to control; type: functional; conditions: at 250 µM
[2] = Activation of autophagy in human SH-SY5Y cells expressing GFP-LC3-RFP assessed as green-to-red signal ratio at 25 mkM relative to control; type: functional; conditions: at 25 µM
[3] = Activation of autophagy in human SH-SY5Y cells expressing GFP-LC3-RFP assessed as green-to-red signal ratio at 2.5 mkM relative to control; type: functional; conditions: at 2.5 µM
SH-SY5Y [4] = test: Activation of autophagy in human SH-SY5Y cells expressing GFP-LC3-RFP assessed as increase in LC3-II level at 25 to 250 mkM by Western blot analysis; type: functional, cell-based; conditions: dose 25-250 mkM
SH-SY5Y [5] = test: Activation of mitophagy in human SH-SY5Y cells expressing GFP-LC3-RFP assessed as increase in phospho-ubiquitin level at 25 to 250 mkM by Western blot analysis; type: functional, cell-based; conditions: dose 25-250 mkM
SH-SY5Y [6] = test: Effect on AKT phosphorylation at T308 in human SH-SY5Y cells expressing GFP-LC3-RFP at 25 to 250 mkM by Western blot analysis; type: functional, cell-based; conditions: dose 25-250 mkM
SH-SY5Y [7] = test: Effect on TSC2 phosphorylation in human SH-SY5Y cells expressing GFP-LC3-RFP at 25 to 250 mkM by Western blot analysis; type: functional, cell-based; conditions: dose 25-250 mkM
SH-SY5Y [8] = test: Activation of autophagy in human SH-SY5Y cells expressing GFP-LC3-RFP assessed as increase in AMPK phosphorylation by Western blot analysis; type: functional, cell-based; conditions: dose 25-250 mkM
SH-SY5Y [9] = test: Activation of autophagy in human SH-SY5Y cells expressing GFP-LC3-RFP assessed as increase in ULK1 phosphorylation at S555 at 25 to 250 mkM by Western blot analysis; type: functional, cell-based; conditions: dose 25-250 mkM
SH-SY5Y [10] = test: Activation of autophagy in human SH-SY5Y cells expressing GFP-LC3-RFP assessed as increase in Beclin-1 level at 25 to 250 mkM by Western blot analysis; type: functional, cell-based; conditions: dose 25-250 mkM
SH-SY5Y [11] = test: Activation of autophagy in human SH-SY5Y cells expressing SIRT1-/-/GFP-LC3-RFP assessed as increase in green-to-red signal ratio at 25 to 250 mkM; type: functional, cell-based; conditions: dose 25-250 mkM
SH-SY5Y [12] = test: Activation of autophagy in human SH-SY5Y cells expressing AMPK-/-/GFP-LC3-RFP assessed as increase in green-to-red signal ratio at 25 to 250 mkM; type: functional, cell-based; conditions: dose 25-250 mkM
SH-SY5Y [13] = test: Activation of autophagy in human SH-SY5Y cells expressing GFP-LC3-RFP assessed as increase in LC3-II level at 250 mkM by Western blot analysis; type: functional, cell-based
SH-SY5Y [14] = test: Activation of autophagy in human SH-SY5Y cells expressing GFP-LC3-RFP assessed as increase in AMPK phosphorylation at 25 to 250 mkM by Western blot analysis; type: functional, cell-based; conditions: dose 25-250 mkM
SH-SY5Y [15] = test: Downregulation of ULK phosphorylation at S757 in human SH-SY5Y cells expressing GFP-LC3-RFP at 25 to 250 mkM by Western blot analysis; type: functional, cell-based; conditions: dose 25-250 mkM
SH-SY5Y [16] = test: Downregulation of 4E-BP1 phosphorylation in human SH-SY5Y cells expressing GFP-LC3-RFP at 25 to 250 mkM by Western blot analysis; type: functional, cell-based; conditions: dose 25-250 mkM

SMILES | Ratio [1] | Ratio [2] | Ratio [3] | Activity (SH-SY5Y [4]) | Activity (SH-SY5Y [5]) | Activity (SH-SY5Y [6]) | Activity (SH-SY5Y [7]) | Activity (SH-SY5Y [8]) | Activity (SH-SY5Y [9]) | Activity (SH-SY5Y [10]) | Activity (SH-SY5Y [11]) | Activity (SH-SY5Y [12]) | Activity (SH-SY5Y [13]) | Activity (SH-SY5Y [14]) | Activity (SH-SY5Y [15]) | Activity (SH-SY5Y [16])
Nc1ncnc2c1nc(Br)n2[C@H]1C[C@H](O)[C@@H](CO)O1 | 0.2% | 3.16% | 1.78% |  |  |  |  |  |  |  |  |  |  |  |  | 
Nc1ncnc2c1nc(Br)n2COCCO | -0.4% | 1.28% | 1.31% |  |  |  |  |  |  |  |  |  |  |  |  | 
Nc1ncnc2c1[nH]c(=O)n2[C@@H]1O[C@H](CO)[C@@H](O)[C@H]1O | 5.71% | 3.62% | 1.31% | Active; Exhibited Moderate Activity | inactive | Active | inactive | Dose-dependent-effect | Active | Active | Active | Active |  |  |  | 
CNc1ncnc2c1ncn2[C@@H]1O[C@H](CO)[C@@H](O)[C@H]1O | 3.36% | -1.43% | -1.2% | Not active; Exhibited Weakest Activity Among Tested Compounds |  |  |  |  |  |  |  |  | Active |  |  | 
Nc1ncnc2c1[nH]c(=O)n2[C@H]1C[C@H](O)[C@@H](CO)O1 | 5.41% | 1.85% | 1.85% | Active; Exhibited Moderate Activity | inactive | Active | inactive | Dose-dependent-effect | Active | Active | Active | Active |  |  |  | 
Nc1ncnc2c1[nH]c(=O)n2COCCO | 2.59% | -2.79% | -0.47% | Not active; Exhibited Weakest Activity Among Tested Compounds |  |  |  |  |  |  |  |  | Active |  |  | 
Nc1nc2c([nH]c(=O)n2[C@H]2C[C@H](O)[C@@H](CO)O2)c(=O)[nH]1 | 1.94% | 1.51% | -0.68% |  |  |  |  |  |  |  |  |  |  |  |  | 
CCC(CC)COC(=O)[C@@H](C)N[P@](=O)(OC[C@H]1O[C@@H](n2cnc3c(NC)ncnc32)[C@H](O)[C@@H]1O)Oc1ccccc1 | 7.26% | 0.44% | -3.79% | Active; Exhibited Higher Activity Compared To Parent Compound | inactive | inactive |  |  | Active |  | Active | Active |  | Active | Active; Result Provides Indirect Evidence Of Mtor Inhibition | Active; Result Provides Indirect Evidence Of Mtor Inhibition
O=c1[nH]c2c(ncn3ccnc23)n1[C@@H]1O[C@H](CO)[C@@H](O)[C@H]1O | -0.79% | -1.76% | -1.32% |  |  |  |  |  |  |  |  |  |  |  |  | 
